Bridge positions count the residues as written; N and C are the ends. Square brackets hold non-standard residues; d marks the D form. Peptide text beside a SMILES is read from it.
What was measured:
[1] = Injection into genetically obese mice; assay type: in vivo; conditions: not normal obese mice
adipose tissue = experiment: Histopathological analysis of tissues from treated mice; conditions: mouse, in vivo
Description: Staining of formalin-fixed, paraffin-embedded mouse tissue sections was performed (Pasqualini & Rouslahti, 1996; Pasqualini et al., 2000). For phage-peptide immunolocalization, 10^10 TU of […] (SEQ ID NO:81)-phage or a control insertless phage was injected intravenously. Phage immunohistochemistry was performed using a rabbit anti-fd phage antibody (Sigma Chemicals, St. Louis, Mo.) used at 1:1,000 dilution and a secondary horseradish peroxidase (HRP)-conjugated antibody. Apoptosis was detected using standard TUNEL immunohistochemistry and an HRP-conjugated antibody. For in vivo peptide homing validation, stocks of 5-carboxyfluorescein (FITC)-conjugated […] (SEQ ID NO:81) or CARAC (SEQ ID NO:71) were chemically synthesized, cyclized using the terminal cysteines and HPLC-purified to >90% purity by Anaspec (San Jose, Calif.). Lyophilized peptides were dissolved in DMSO to a concentration of 20 mM. Ten μl of 1 mM peptide-FITC solution in PBS was injected 5 min prior to tissue extraction. For blood vessel localization, 10 μl of 2 mg/ml of rhodamine-conjugated lectin-I (RL-1102, Vector Laboratories, Burlingame, Calif.) was co-injected. All immunohistochemistry and FITC immunofluorescence images were captured using an Olympus IX70 microscope and digital camera setup (Melville, N.Y.).

[2] = Anti-obesity therapy, regular diet-fed old mice; set-up: species or system C57BL/6 mice; conditions: mouse, in vivo
[3] = system: antibodies isolated from the ascites of an ovarian cancer patient; experiment: Competition of ascites antibody binding to immobilized GST fusion protein; set-up: species or system human
Description: Inhibition studies were performed in a similar manner as the binding assays described above with the exception that either GST fusion protein or synthetic peptide corresponding to the phage clone were added to the experiment. Where the peptide is mediating the interaction with the immunoglobulins then an inhibition of phage binding should be observed in a dose dependent manner versus the synthetic peptide. GST alone and a control peptide containing unrelated amino acids were tested at identical concentrations.
Peptide sequences of interest were expressed as GST fusion proteins (described above) and used to screen banked ascites and serum to determine the role of the humoral response against these markers. The purified GST-fusion proteins were used to coat a 96-well plate at 100 ng/well at room temperature (RT) or at 4° C. overnight. Following coating, the wells were emptied, rinsed, and non-specific sites were blocked with 200 μl 3% BSA/PBS at RT for 1-2 hours. Cancer patient ascites and/or sera were applied to each coated and blocked well at 1:100 dilution and then incubated at RT for 1 hour. […] Signals were detected in the presence of p-nitrophenyl phosphate by measuring OD405 at specific intervals to follow the course of color development. […]

[4] = system: IgGs isolated from the ascites of ovarian cancer patients; experiment: Biopanning of CX7C phage library on IgGs from ovarian cancer ascites; assay type: binding, human
Description: To identify peptide epitopes specific for the anti-tumor immune response in ovarian cancer, a two-step screening procedure was followed (FIG. 34). The peptide library was initially pre-cleared on IVIg (intravenous immunoglobulins) to remove non-specific peptides. The pre-cleared peptide phage library was then incubated with IgGs isolated from the ascites of ovarian cancer patients. Phage bound to the ovarian cancer IgGs were recovered, amplified, and precipitated for subsequent rounds of biopanning. Following enrichment of a phage population that bound to ovarian cancer patient IgGs, individual phage clones were picked for sequence analysis to evaluate enrichment of the most consistently binding peptide sequences. Phage display biopanning was performed as described above.
Once the selection rounds were completed as determined by enrichment of phage capable of binding cancer patient IgGs over control at least 3 fold, sequencing and evaluation of the DNA phage insert were undertaken. To sequence the FUSE5 ssDNA directly, phage ssDNA was prepared using the StrataClean™ resin (Stratagene). StrataClean bead slurry was placed in a microcentrifuge tube containing phage. The mixture was vortexed strongly for 30 seconds and then incubated at room temperature for one minute. The tubes were centrifuged at 2,000×g for 1 minute. […]

[5] = system: MDA-MB-435 breast carcinoma; experiment: Phage localization, separate study; conditions: in vivo
DU145 xenografts = experiment: Phage localization by anti-phage staining of tissues; assay type: in vivo, nude mice; conditions: 24 hour circulation
Description: To determine the specificity of the prostate tumor targeting peptides, 10^9 phage carrying the targeting peptide sequences […] (SEQ ID NO:83) and […] (SEQ ID NO:84) were injected into nude mice bearing DU145 xenografts. After 24 hour circulation, tissue samples were obtained from tumor and control organs (kidney, brain, lung and spleen). Tissue samples were washed immediately in DMAM and fixed in 10% formalin for 48 hours at room temperature. Thin sections were stained for phage using anti-phage antibody (1:500 dilution) and detected using the DAKO LSAB+ system. […] This may be due to the tendency of spleen tissue to trap phage and other foreign particles in general as part of the reticuloendothelial system.

DU145 tumors = experiment: Competition of phage tumor localization by synthetic peptide; assay type: in vivo, nude mice; conditions: 300 μg synthetic peptide co-injected with phage
Description: Competition studies with the […] (SEQ ID NO:83) peptide were performed to determine whether it could inhibit localization of phage bearing the same targeting sequence to DU145 tumors. Nude mice bearing the prostate tumor xenograft were simultaneously injected with 300 μg of synthetic […] (SEQ ID NO:83) peptide and 10^9 phage bearing the same targeting peptide sequence. A control tumor-bearing mouse was co-injected with fd insertless phage plus synthetic peptide. After 24 hours of circulation, tumor tissue samples were removed, washed, fixed, sectioned and stained as disclosed above. Co-administration of synthetic peptide with the same targeting sequence inhibited the ability of […] (SEQ ID NO:83)-phage to localize to prostate carcinoma tissue (not shown). No staining of prostate carcinoma with control fd-tet phage was observed (not shown)

HSP90α = biological target: T1, HSP90α (Homo sapiens, UniProt P07900); experiment: Receptor purification on biotinylated peptide beads; assay type: binding; conditions: MALDI analysis of excised bands
T1 construct: from tissue; host or cells: homogenate pellet of DU145 xenograft tumor grown in nude mice
Description: The prostate homing receptor for the B2 clone ([…] SEQ ID NO:83) was identified. Nude mice bearing DU145 xenografts were prepared and tissue samples from tumor, kidney and liver were removed. The tissue samples were immediately washed with PBS and three parts of homogenization buffer (PBS, 250 mM sucrose, 1 mM EDTA, protease inhibitors) was added to one part of tissue sample (about 4 ml). The tissue with homogenized with an electric grinder, then further homogenized with a dounce homogenizer. After sonication for 1 min on ice, the homogenate was centrifuged at 8000×g for 5 min. The supernatant was removed and the pellet was analyzed for receptor content.
The […] (SEQ ID NO:83) peptide was biotinylated and coupled to NeutrAvidin beads (Molecular Probes, Eugene, Oreg.) using standard methods. About 500 μg of biotinylated peptide was incubated with 1 ml of NeutrAvidin beads in binding buffer (0.5 M NaCl in PBS) overnight at 4° C. in a 2 ml column. The column was agitated using a rotator. Uncoupled peptides were removed and the beads washed three times with binding buffer and protease inhibitors. […]
The beads were washed four times with wash buffer (0.1% Triton X-100 in PBS with protease inhibitors) and the bound material eluted with 8 M guanidine HCl. Eluted proteins were analyzed on a 4-20% SDS-PAGE denaturing gel. […]

CC(C)C[C@@H](NC(=O)[C@@H](CCCCN)NC(=O)CNC(=O)CNC(=O)[C@@H]1CSSC[C@H](N)C(=O)N[C@@H](CCCCN)C(=O)NCC(=O)NCC(=O)N[C@@H](CCCNC(=N)N)C(=O)N[C@@H](C)C(=O)N[C@@H](CCCCN)C(=O)N[C@@H](CC(=O)O)C(=O)N1)C(=O)N[C@H](C)C(=O)N[C@H](CCCCN)C(=O)N[C@H](CC(C)C)C(=O)N[C@H](C)C(=O)N[C@H](CCCCN)C(=O)N[C@H](CCCCN)C(=O)N[C@H](CC(C)C)C(=O)N[C@H](C)C(=O)N[C@H](CCCCN)C(=O)N[C@H](CC(C)C)C(=O)N[C@H](C)C(=O)N[C@H](CCCCN)C(=O)O (H-CKGGRAKDCGG[dK][dL][dA][dK][dL][dA][dK][dK][dL][dA][dK][dL][dA][dK]-OH; disulfide 1-9)
mortality [1]: occasionally observed to result in mortality
abnormalities in other organs (adipose tissue): No abnormalities in other organs
toxicity [2]: No toxicity

CVPELGHEC
inhibition of antibody binding to immobilized GST-CVPELGHEC [3]: competitively inhibited in a dose-dependent fashion
share of the phage clones sequenced [4]: 86%

YRCTLNSPFFWEDMTHECHA [listing 1 of 2 here]
phage localization [5]: no apparent localization
anti-phage staining of control kidney, brain or lung (DU145 xenografts): No staining was observed
anti-phage staining of normal spleen (DU145 xenografts): low level of anti-phage staining
anti-phage staining of tumor (DU145 xenografts): very heavy staining

YRCTLNSPFFWEDMTHECHA [listing 2 of 2 here]
inhibition of phage localization to prostate carcinoma (DU145 tumors): inhibited
receptor identified (HSP90α): HSP90α

From patent publication US8507445B2, “Compositions and methods of use of targeting peptides for diagnosis and therapy of human cancer” (Board of Regents, The University of Texas System, priority 2002, dated 2013)
